Where two headings read alike, the source gives them in different places.
Experiments:
Rac = settings: cited from earlier work
GFP-HER2-BM cells [1] = experiment: Cell viability (MTT) assay; assay type: cell-based, human
Experimental: (§1) Using CellTiter 96 Non-Radioactive Cell Proliferation Assay (Promega, Corp.) according to manufactures’ instructions, formazan was used as an indicator of viable cells at an absorbance 570 nm in a Tecan Microplate Reader M100 (Tecan). Data were calculated as fold change from vehicle and transformed to logarithm base 10. 0 concentration was replaced with 1 nmol/L to fit using the 4-parameter logic nonlinear regression model in GraphPad Prism software. (n = 3 biologic replicates: with three technical replicates each).
(§2) All half maximal growth inhibitory concentration (GI50) values were determined by using the 4-parameter logistic curve model in GraphPad Prism 9 software. Statistical analyses were done also using GraphPad Prism 9 software, and differences were considered statistically significant at P ≤ 0.05 using ordinary one-way ANOVA or unpaired Student t test with Dunnet multiple comparison tests.

GFP-HER2-BM cells [2] = experiment: Apoptosis assay (Caspase-Glo3/7); assay type: cell-based, human; settings: 500 nmol/L, 48 hours
Experimental: (§3) Apoptosis was measured using a Caspase-Glo3/7 Luminescence Assay Kit as per manufacturer's instructions (Promega, Corp.), as described previously ([23]). Briefly, Caspase-3/7 Glo reagent was added and incubated at room temperature for 60 minutes and caspase-3/7 activities were determined by detecting luminescence using Tecan Microplate Reader M100 (Tecan). Data were calculated as fold change from vehicle. (n = 3 biologic replicates: with three technical replicates each).

MDA-MB-468 cells [3] = experiment: Apoptosis assay (Caspase-Glo3/7); assay type: cell-based, human; settings: 500 nmol/L, 48 hours
Experimental: as §3

Rac1B splice variant = Rac1B splice variant (Homo sapiens, UniProt P63000); experiment: Rac1B activation pulldown assay in MDA-MB-468 cells; settings: MDA-MB-468, read-out: inhibition of Rac1B activation, MDA-MB-468, 500 nmol/L, 24 hours
Rac1 [4] = target: Rac1 (Homo sapiens, UniProt P63000); experiment: Rac activation pulldown assay in MDA-MB-231 cells; settings: MDA-MB-231, read-out: inhibition of Rac1 activity, MDA-MB-231, 250 nmol/L, 24 hours
MCF7 breast cancer cells = experiment: Cell viability (MTT) assay; assay type: cell-based, human; settings: 250 nmol/L, 120 hr
Experimental: as §1
Supplementary Figure S1. Percentage cell viability of MDA-MB-231, GFP-HER2-BM, […]
nM for 120 hr. The bar graphs are presented as individual fold change data points from vehicle and grouped mean ± SEM. (n = 3; *, P < 0.05; ** P < 0.01).
(1 picture or pasted object on this page, not shown here)

MDA-MB-231 cells [5] = experiment: Cell viability (MTT) assay; assay type: cell-based, human
Experimental: as §1, §2

MCF10A cells = experiment: Cell viability (MTT) assay; assay type: cell-based, human
Experimental: as §1, §2

[6] = system: MDA-MB-231, GFP-HER2-BM, and MDA-MB-468 cells; experiment: Apoptosis assay (Caspase-Glo3/7), cell line not specified; assay type: cell-based, human; settings: 500 nmol/L, 48 hours
Experimental: as §3

[7] = target: T1, Rac1(G15A) interaction with Vav2 (Homo sapiens, UniProt P63000, G15A); experiment: Rac1 (G15A) pulldown assay, Vav2; assay type: binding; settings: for potency relative to EHop-016 (parent compound): Vav/Rac inhibitor
T1 construct: purchased Cell Biolabs; host or cells: GEF from MDA-MB-231 lysate
Experimental: MDA-MB-231 cells were lysed in 1% Triton X-100, 20 mmol/L HEPES, pH 7.4, 150 mmol/L NaCl, 5 mmol/L MgCl2, and protease inhibitors, and processed as described previously ([20]). Equal amounts of protein from cleared lysates were incubated for 1 hour at 4°C with glutathione-agarose beads conjugated to GST-Rac1 and GST-Cdc42(G15A) nucleotide-free mutant (Cell Biolabs) that were preincubated (for 1 hour) with vehicle or Rac/Cdc42 inhibitors, as indicated. The beads were washed, and pulldowns were immunoblotted for Vav2 or Ect2.

MDA-MB-231 cells [8] = experiment: Apoptosis assay (Caspase-Glo3/7); assay type: cell-based, human; settings: 500 nmol/L, 48 hours
Experimental: as §3

MDA-MB-468 cells [9] = experiment: Cell viability (MTT) assay; assay type: cell-based, human; settings: 500 nmol/L, 72 hours
Experimental: as §1

HMEC cells = experiment: Cell viability (MTT) assay; assay type: cell-based, human; settings: 120 hours, 0 to 1,000 nmol/L
Experimental: as §1

MDA-MB-231 cells [10] = experiment: Phalloidin staining of F-actin, cell phenotype; assay type: cell-based, human; settings: 250 nmol/L, 12 hours
Source text: Cells were fixed, permeabilized, and stained with rhodamine phalloidin to visualize F-actin as described previously ([23]). Fluorescence micrographs were acquired at 40× in a Keyence fluorescence microscope.

MDA-MB-231 cells [11] = experiment: Wound healing assay; assay type: cell-based, human; settings: 250 nmol/L; 12 and 24 hours
Experimental: MDA-MB-231 cells were plated on 12-well plates at equal cell density until confluent. Then the media was changed to 1% FBS, and a single scratch was made in the center of the monolayer culture with a pipet tip. Compounds were added immediately at 250 or 500 nmol/L and images were digitally acquired from a Keyence microscope (10×) at 0, 12, and 24 hours. The scratch area was quantified in ImageJ using the Macro Wound Healing Tool (http://dev.mri.cnrs.fr/projects/imagej-macros/wiki/Wound_Healing_Tool; n = 3 biologic replicates: with three technical replicates each).

A549 lung cancer cells = experiment: EGF-induced ruffle formation; assay type: cell-based, human; settings: 24 hours, then EGF 200 ng/mL
Experimental: Cells were fixed with 4% formaldehyde and F-actin stained with rhodamine phalloidin. Slides were visualized by fluorescence microscopy and five random fields were scored for the number of ruffles. Ruffle area was measured by thresholding for single intensity using ImageJ/Fiji software, as in ref. [29].

CYP2C19 = target: T2, CYP2C19 (Homo sapiens, UniProt P33261); experiment: CyP450 enzyme assay (P450-Glo); assay type: in vitro ADME
T2 construct: purchased Promega
Experimental: (§4) The assay was carried out using P450-Glo Screening System (Promega). The system contained recombinant human CYP enzyme and P450 reductase (and cytochrome b5 for CYP2C9, 2C19, and 3A4), luminogenic substrates appropriate for each CYP enzyme, a NADPH regeneration system (containing NADP+), and luciferin detection reagent. […] These compounds and organic solvents acetonitrile, and DMSO were purchased from Sigma-Aldrich.
(§5) First, 12.5 μL of the 4X stock solution of test compounds or positive controls (appropriate for each enzyme) were added to the “treated” wells. For the “untreated” (the values from these wells represent total CYP activity) and “minus-P450 control” wells (the values from these wells represent the CYP-independent background luminescence of the assay), 12.5 μL of vehicle was added. Then, 12.5 μL of the 4X control reaction mixture (containing membrane preparations devoid of CYP enzymes, the appropriate luminogenic substrate, and potassium phosphate buffer) were added to the minus-P450 control wells, and 12.5 μL of the 4X reaction mixture (containing human CYP membrane preparations, the appropriate luminogenic substrate, and potassium phosphate buffer) were added to all other wells. The plates were preincubated at room temperature for 10 minutes with the reaction mixture (membrane with enzyme, substrate, and 1 mol/L potassium phosphate buffer), and then 2X NADPH regeneration system was added to initiate the reaction. After incubation at room temperature for 30 minutes, 50 μL of the Luciferin Detection Reagent was added to stop the reaction and generate the luminescent signal. Before reading, the plate was incubated at room temperature for 20 minutes to stabilize the luminescent signal. The luminescence was measured using an Infinite F200 plate reader (Tecan). […] The percentage of CYP enzyme activity versus log concentration of test compounds were plotted to calculate the IC50 values.

CYP2C9 = target: T3, CYP2C9 (Homo sapiens, UniProt P11712); experiment: CyP450 enzyme assay (P450-Glo); assay type: in vitro ADME; settings: recombinant human CYP enzyme, 0.001–100 μmol/L
T3 construct: purchased Promega
Experimental: as §4, §5

CYP3A4 = target: T4, CYP3A4 (Homo sapiens, UniProt P08684); experiment: CyP450 enzyme assay (P450-Glo); assay type: in vitro ADME; settings: recombinant human CYP enzyme, 0.001–100 μmol/L
T4 construct: purchased Promega
Experimental: as §4, §5

[12] = system: GFP-HER2-BM, MDA-MB-231, and MDA-MB-468 cancer cell lines; experiment: Cell viability (MTT) assay, three cancer cell lines together; assay type: cell-based, human
Experimental: as §1

Cdc42 = system: Cdc42; design: method as in PMID 23382385; settings: read-out: IC50, Cdc42 selective inhibitor; cited from earlier work
Rac1 [13] = system: Rac1; design: method as in PMID 15128949; settings: inhibits Rac1 binding and activation by the GEFs Trio and Tiam1; cited from earlier work

T2 sequence (P33261 whole entry): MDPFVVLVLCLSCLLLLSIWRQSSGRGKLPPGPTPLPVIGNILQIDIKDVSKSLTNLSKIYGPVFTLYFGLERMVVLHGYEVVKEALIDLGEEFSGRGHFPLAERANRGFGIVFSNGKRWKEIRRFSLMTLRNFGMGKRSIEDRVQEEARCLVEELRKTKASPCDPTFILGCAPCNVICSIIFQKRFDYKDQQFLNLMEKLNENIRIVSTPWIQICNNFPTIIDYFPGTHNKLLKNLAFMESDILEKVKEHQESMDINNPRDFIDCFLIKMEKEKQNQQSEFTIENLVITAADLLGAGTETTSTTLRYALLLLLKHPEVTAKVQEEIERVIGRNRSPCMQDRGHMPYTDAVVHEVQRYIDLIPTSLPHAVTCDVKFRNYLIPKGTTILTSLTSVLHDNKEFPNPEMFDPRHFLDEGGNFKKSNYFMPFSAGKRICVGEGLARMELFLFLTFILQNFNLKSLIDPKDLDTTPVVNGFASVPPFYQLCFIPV
T3 sequence (P11712 whole entry): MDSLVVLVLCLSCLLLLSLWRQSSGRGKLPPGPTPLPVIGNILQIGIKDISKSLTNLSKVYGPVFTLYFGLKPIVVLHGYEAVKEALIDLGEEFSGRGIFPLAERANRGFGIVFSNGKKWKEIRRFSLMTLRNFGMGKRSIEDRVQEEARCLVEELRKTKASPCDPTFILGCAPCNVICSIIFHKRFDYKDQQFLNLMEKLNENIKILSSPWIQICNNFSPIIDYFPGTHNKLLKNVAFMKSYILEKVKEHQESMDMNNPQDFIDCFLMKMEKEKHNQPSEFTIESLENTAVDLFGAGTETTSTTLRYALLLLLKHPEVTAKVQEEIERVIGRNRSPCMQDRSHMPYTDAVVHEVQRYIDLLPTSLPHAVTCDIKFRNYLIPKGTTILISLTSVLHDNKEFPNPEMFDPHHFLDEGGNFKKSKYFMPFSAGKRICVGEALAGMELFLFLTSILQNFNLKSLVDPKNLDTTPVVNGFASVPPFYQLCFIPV
T4 sequence (P08684 whole entry): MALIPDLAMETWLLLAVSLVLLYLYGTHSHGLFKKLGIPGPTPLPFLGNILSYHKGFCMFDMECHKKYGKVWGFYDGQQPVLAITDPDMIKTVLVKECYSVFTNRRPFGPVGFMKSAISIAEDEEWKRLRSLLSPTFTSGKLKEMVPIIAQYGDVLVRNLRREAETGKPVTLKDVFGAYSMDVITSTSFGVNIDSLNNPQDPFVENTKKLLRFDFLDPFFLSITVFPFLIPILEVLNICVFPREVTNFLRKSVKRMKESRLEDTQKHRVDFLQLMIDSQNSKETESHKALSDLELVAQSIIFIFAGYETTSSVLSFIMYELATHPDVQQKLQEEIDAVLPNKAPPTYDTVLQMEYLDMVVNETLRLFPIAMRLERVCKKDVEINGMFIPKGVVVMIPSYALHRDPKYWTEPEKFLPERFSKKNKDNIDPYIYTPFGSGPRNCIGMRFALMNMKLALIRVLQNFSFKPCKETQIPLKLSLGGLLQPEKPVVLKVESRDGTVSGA

## O=c1cc(CN2CCOCC2)occ1OCCCCCSc1ccnc2cc(C(F)(F)F)ccc12 [EHT1864]
Rac
  IC50: > 10000 nM

## CCn1c2ccccc2c2cc(Nc3ccnc(NCCCN4CCOCC4)n3)ccc21 [EHop-016]
Rac; blocking the interaction of Rac with the GEF Vav
  IC50: 1100 nM

## CCn1c2ccccc2c2cc(-n3nnc(C(O)c4cccnc4)c3-c3ccccc3)ccc21 (stereo not drawn) [EHop-040]
GFP-HER2-BM cells [1]; 500 nmol/L, 72 hours
  inhibition of cell viability: 80%
GFP-HER2-BM cells [2]
  Caspase-3/7 activity: significantly increased Caspase-3/7 activity
MDA-MB-468 cells [3]
  Caspase-3/7 activity: significantly increased Caspase-3/7 activity

## CCn1c2ccccc2c2cc(-n3nnc(C(O)c4cccc(OC)c4)c3-c3ccccc3)ccc21 (stereo not drawn) [EHop-097]
Rac1B splice variant
  inhibition at 0.5 µM: ~60%
Rac1 [4]
  inhibition at 0.25 µM: ~85%
MCF7 breast cancer cells
  inhibition of cell viability: not effective
GFP-HER2-BM cells [1]; 250 nmol/L, 120 hr
  inhibition of cell viability: approximately 60%
GFP-HER2-BM cells [1]; 500 nmol/L, 72 hours
  inhibition of cell viability: 80%
GFP-HER2-BM cells [1]; Homo sapiens, 120 hours, 0 to 1,000 nmol/L
  GI50: 261 nM
MDA-MB-231 cells [5]; 250 nmol/L, 120 hr
  inhibition of cell viability: not effective
MDA-MB-231 cells [5]; 500 nmol/L, 72 hours
  inhibition of cell viability: 50%
MDA-MB-231 cells [5]; Homo sapiens, MDA-MB-231, 120 hours, 0 to 1,000 nmol/L
  GI50: 327 nM
MCF10A cells; 250 nmol/L, 120 hr
  inhibition of cell viability: not effective
MCF10A cells; Homo sapiens, MCF-10A, 120 hours, 0 to 1,000 nmol/L
  GI50: 335 nM
[6]
  caspase-3/7 activity compared with the vehicle: three to five times
[7]; 250 nmol/L, 1 hour preincubation, MDA-MB-231 cell lysates
  Rac1(G15A) interaction with Vav2: blocked the interaction
[7]; EHop-097 at 250 nmol/L
  efficacy compared with EHop-016 at 8 μmol/L: 4 X
[7]
  potency relative to EHop-016 (parent compound): 10–30 ×
[7]; listed as Ehop-097
  potency relative to EHop-016 (parent compound): 10 ×
GFP-HER2-BM cells [2]
  Caspase-3/7 activity: significantly increased Caspase-3/7 activity
MDA-MB-231 cells [8]
  Caspase-3/7 activity: significantly increased Caspase-3/7 activity
MDA-MB-468 cells [9]
  inhibition of cell viability: nonstatistically significant trend
HMEC cells
  effect on viability of HMECs: did not affect the viability of HMECs
MDA-MB-231 cells [10]
  cell phenotype, actin cytoskeleton: smaller and less spread but did not have the characteristic loss of polarity
MDA-MB-231 cells [11]
  wound closure: wound area was maintained at 12 and 24 hours
A549 lung cancer cells; 500 nmol/L
  loss in ruffles: 33%
A549 lung cancer cells; 1,000 nmol/L
  decrease in ruffles: 58%

## CCn1c2ccccc2c2cc(-n3nnc(C(O)c4ccco4)c3-c3ccccc3)ccc21 (stereo not drawn) [EHop-098]
GFP-HER2-BM cells [1]; 500 nmol/L, 72 hours
  inhibition of cell viability: 80%

## CCn1c2ccccc2c2cc(-n3nncc3-c3cccc(C)c3)ccc21 [MBQ-169]
GFP-HER2-BM cells [1]; 500 nmol/L, 72 hours
  inhibition of cell viability: approximately 75%
GFP-HER2-BM cells [2]
  Caspase-3/7 activity: significantly increased Caspase-3/7 activity
CYP2C19
  CYP2C19 IC50, fold lower than the IC50 for the positive control: approximately 6 fold
CYP2C19; human, recombinant human CYP enzyme, 0.001–100 μmol/L
  IC50 at 30 min: 580 nM
CYP2C9
  IC50: 870 nM
CYP3A4
  IC50: 3310 nM

## CCn1c2ccccc2c2cc(-n3nncc3-c3ccccn3)ccc21 [MBQ-170]
[12]
  effect on viability of cancer cells: did not affect the viability of cancer cells
MDA-MB-231 cells [11]
  wound closure: wound was closed in 24 hours

## CCn1c2ccccc2c2cc(-n3nncc3-c3cccnc3)ccc21 [MBQ-171]
GFP-HER2-BM cells [1]; 500 nmol/L, 72 hours
  inhibition of cell viability: approximately 75%
CYP2C19; recombinant human CYP enzyme, 0.001–100 μmol/L
  IC50: 12400 nM
CYP2C9
  IC50: 1550 nM
CYP3A4
  IC50: 8040 nM

## COc1ccc(C2=NN(c3ccc(S(N)(=O)=O)cc3)C(c3ccccc3)C2)cc1 (stereo not drawn) [ML141]
Cdc42
  IC50: 3000 to 5000 nM

## O=C(C#Cc1ccccc1)c1cccc([N+](=O)[O-])c1 [MLS000532223]
Rac
  IC50: > 10000 nM
